Type in all cases: functional, cell-based
For data set [1], the target named is T1, Multidrug resistance-associated protein 1 (Mus musculus, UniProt O35379). In words: TP_TRANSPORTER: inhibition of glyburide accumulation in the presence of indomethacin at a concentration of 200uM in MRP1-expressing HeLa cells. The conditions noted are these: human.
Data set [2] has as its target Multidrug resistance associated protein (Homo sapiens) (UniProt Q96QA9). In words: TP_TRANSPORTER: inhibition of 5-carboxyfluorescein accumulation by indomethacin at a concentration of 200uM in MRP3-expressing MDCK cells. The arrangement: scale not given: the % may be the effect or the level left.
Data set [3] has the same target. Kind of data set: TP_TRANSPORTER: inhibition of glyburide accumulation by indomethacin at a concentration of 200uM in MRP3-expressing MDCK cells.
Data set [4] has as its target T2, ATP-binding cassette sub-family C member 2 (Homo sapiens, UniProt Q92887). Kind of data set: TP_TRANSPORTER: inhibition of glyburide accumulation in MRP2-expressing MDCK cells. To be noted: dog.
For data set [5], the target named is T1, Multidrug resistance-associated protein 1. In words: TP_TRANSPORTER: inhibition of 5-carboxyfluorescein accumulation in the presence of indomethacin at a concentration of 200uM in MRP1-expressing HeLa cells. The arrangement: scale not given: the % may be the effect or the level left. The conditions noted are these: human.
The target of data set [6] is Multidrug resistance associated protein (Homo sapiens) (UniProt Q96QA9). Kind of data set: TP_TRANSPORTER: inhibition of 5-carboxyfluorescein accumulation by glyburide at a concentration of 200uM in MRP3-expressing MDCK cells. Details: scale not given: the % may be the effect or the level left.
Data set [7] deals with T3, Broad substrate specificity ATP-binding cassette transporter ABCG2 (Homo sapiens, UniProt Q9UNQ0).
T3 sequence (Q9UNQ0 whole entry): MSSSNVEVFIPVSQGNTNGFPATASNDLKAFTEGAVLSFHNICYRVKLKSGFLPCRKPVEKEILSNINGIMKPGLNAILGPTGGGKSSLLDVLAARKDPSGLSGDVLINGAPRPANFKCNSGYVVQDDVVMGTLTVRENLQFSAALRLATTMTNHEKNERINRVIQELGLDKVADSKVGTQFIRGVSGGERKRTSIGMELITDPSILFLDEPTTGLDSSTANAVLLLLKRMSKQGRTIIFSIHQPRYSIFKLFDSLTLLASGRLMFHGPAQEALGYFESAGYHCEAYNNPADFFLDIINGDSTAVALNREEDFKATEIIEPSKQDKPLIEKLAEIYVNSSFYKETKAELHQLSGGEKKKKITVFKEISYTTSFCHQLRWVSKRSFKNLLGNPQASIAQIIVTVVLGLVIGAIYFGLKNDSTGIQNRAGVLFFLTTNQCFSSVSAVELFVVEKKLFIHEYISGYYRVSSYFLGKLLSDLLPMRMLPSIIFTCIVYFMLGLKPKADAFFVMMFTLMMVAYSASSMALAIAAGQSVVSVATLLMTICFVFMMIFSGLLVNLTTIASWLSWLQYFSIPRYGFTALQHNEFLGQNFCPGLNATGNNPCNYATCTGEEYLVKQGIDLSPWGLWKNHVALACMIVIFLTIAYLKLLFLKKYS
In words: TP_TRANSPORTER: inhibition of mitoxantrone efflux in BCRP-expressing MCF7-MX cells.

The target of data set [8] is T2, ATP-binding cassette sub-family C member 2. Kind of data set: TP_TRANSPORTER: inhibition of 5-carboxyfluorescein accumulation by glyburide at a concentration of 200uM in MRP2-expressing MDCK cells. The arrangement: scale not given: the % may be the effect or the level left. To be noted: dog.
Data set [9] has as its target Multidrug resistance associated protein (Homo sapiens) (UniProt Q96QA9). Kind of data set: TP_TRANSPORTER: inhibition of 5-carboxyfluorescein accumulation by glyburide at a concentration of 10uM in MRP3-expressing MDCK cells.
Data set [10] has as its target T1, Multidrug resistance-associated protein 1. Kind of data set: TP_TRANSPORTER: inhibition of 5-carboxyfluorescein accumulation in the presence of glyburide at a concentration of 10uM in MRP1-expressing HeLa cells. To be noted: human.
Data set [11] addresses T2, ATP-binding cassette sub-family C member 2. Kind of data set: TP_TRANSPORTER: inhibition of 5-carboxyfluorescein accumulation in MRP2-expressing MDCK cells. To be noted: dog.

By IC50 is commonly meant the concentration at which inhibition is half-maximal.

T2 sequence (Q92887 whole entry): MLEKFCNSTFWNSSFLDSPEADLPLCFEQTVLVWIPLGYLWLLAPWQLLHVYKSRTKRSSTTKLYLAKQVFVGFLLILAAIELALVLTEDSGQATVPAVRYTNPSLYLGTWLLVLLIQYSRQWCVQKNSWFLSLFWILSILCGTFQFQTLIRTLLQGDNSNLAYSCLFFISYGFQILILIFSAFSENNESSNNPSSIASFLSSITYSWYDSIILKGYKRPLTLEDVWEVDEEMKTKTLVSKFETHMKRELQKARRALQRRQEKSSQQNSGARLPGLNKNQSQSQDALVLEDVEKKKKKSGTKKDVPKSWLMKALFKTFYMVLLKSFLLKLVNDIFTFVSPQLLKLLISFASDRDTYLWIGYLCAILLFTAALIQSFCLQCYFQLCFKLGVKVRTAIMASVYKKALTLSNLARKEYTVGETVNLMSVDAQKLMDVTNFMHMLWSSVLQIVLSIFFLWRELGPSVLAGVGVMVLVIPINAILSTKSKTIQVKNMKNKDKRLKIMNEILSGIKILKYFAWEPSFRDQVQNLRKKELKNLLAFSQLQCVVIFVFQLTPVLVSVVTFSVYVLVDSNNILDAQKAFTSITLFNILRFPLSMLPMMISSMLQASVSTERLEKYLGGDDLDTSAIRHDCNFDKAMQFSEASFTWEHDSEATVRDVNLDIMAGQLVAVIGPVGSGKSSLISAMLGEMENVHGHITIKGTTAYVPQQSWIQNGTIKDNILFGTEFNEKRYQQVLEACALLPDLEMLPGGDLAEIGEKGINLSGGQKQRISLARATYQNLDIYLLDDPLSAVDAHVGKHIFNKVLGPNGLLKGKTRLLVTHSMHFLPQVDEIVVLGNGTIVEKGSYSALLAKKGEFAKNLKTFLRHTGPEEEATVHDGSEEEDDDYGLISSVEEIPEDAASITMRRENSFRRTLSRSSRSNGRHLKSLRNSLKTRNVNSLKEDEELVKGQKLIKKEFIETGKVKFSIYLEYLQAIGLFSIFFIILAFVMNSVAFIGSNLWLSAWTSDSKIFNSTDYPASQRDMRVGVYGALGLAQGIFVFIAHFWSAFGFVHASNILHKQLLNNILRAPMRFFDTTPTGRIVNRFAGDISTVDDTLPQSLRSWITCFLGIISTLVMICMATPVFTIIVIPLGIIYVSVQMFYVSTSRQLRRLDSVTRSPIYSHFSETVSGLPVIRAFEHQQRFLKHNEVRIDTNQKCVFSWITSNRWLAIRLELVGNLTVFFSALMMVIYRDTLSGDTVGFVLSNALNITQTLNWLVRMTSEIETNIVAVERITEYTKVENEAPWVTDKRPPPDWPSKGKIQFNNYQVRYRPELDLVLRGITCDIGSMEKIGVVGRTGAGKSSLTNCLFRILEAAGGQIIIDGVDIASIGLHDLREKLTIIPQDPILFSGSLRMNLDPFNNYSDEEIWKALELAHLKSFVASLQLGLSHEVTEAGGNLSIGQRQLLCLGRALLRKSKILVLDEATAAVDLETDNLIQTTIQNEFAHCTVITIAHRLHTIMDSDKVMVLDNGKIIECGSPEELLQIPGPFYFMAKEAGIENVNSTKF
Multidrug resistance associated protein (Homo sapiens), sequence (Q96QA9 as listed by the source): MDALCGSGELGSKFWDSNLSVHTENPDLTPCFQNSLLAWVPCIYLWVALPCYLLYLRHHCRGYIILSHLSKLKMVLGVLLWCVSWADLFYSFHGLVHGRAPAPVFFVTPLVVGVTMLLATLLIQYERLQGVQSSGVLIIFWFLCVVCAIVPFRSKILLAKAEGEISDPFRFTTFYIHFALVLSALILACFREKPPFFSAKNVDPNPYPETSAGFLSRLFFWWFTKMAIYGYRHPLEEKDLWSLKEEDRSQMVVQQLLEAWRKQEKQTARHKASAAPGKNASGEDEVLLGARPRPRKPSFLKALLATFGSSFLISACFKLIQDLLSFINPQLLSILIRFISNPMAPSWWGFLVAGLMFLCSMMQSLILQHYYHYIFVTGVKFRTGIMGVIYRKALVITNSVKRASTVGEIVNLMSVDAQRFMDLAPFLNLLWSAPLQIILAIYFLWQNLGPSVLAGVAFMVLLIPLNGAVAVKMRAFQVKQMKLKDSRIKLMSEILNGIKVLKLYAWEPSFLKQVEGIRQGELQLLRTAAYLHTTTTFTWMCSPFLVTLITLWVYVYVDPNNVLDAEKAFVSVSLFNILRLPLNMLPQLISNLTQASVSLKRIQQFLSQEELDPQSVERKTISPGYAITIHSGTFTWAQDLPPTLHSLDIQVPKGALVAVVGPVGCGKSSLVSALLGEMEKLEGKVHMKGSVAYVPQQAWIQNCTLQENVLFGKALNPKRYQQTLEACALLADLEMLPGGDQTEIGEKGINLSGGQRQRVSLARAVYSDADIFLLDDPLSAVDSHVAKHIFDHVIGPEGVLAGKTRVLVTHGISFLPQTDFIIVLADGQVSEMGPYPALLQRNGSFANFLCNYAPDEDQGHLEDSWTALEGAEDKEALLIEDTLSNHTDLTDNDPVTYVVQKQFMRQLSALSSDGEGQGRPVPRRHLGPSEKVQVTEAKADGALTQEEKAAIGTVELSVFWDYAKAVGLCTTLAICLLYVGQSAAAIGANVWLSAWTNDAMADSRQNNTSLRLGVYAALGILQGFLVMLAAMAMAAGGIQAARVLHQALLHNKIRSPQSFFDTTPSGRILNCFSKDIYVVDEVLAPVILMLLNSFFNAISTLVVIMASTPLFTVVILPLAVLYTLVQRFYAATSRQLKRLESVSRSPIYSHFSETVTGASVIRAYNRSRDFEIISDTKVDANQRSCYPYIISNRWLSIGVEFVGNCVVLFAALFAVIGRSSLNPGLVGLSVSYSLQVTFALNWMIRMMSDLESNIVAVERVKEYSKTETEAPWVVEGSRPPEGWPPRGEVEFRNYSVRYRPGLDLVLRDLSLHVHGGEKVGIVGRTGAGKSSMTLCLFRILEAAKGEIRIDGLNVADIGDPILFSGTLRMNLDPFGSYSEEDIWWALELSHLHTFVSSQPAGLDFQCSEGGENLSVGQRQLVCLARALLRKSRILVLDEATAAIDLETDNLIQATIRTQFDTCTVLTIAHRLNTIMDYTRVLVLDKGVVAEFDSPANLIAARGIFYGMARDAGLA
T1 sequence (O35379 whole entry): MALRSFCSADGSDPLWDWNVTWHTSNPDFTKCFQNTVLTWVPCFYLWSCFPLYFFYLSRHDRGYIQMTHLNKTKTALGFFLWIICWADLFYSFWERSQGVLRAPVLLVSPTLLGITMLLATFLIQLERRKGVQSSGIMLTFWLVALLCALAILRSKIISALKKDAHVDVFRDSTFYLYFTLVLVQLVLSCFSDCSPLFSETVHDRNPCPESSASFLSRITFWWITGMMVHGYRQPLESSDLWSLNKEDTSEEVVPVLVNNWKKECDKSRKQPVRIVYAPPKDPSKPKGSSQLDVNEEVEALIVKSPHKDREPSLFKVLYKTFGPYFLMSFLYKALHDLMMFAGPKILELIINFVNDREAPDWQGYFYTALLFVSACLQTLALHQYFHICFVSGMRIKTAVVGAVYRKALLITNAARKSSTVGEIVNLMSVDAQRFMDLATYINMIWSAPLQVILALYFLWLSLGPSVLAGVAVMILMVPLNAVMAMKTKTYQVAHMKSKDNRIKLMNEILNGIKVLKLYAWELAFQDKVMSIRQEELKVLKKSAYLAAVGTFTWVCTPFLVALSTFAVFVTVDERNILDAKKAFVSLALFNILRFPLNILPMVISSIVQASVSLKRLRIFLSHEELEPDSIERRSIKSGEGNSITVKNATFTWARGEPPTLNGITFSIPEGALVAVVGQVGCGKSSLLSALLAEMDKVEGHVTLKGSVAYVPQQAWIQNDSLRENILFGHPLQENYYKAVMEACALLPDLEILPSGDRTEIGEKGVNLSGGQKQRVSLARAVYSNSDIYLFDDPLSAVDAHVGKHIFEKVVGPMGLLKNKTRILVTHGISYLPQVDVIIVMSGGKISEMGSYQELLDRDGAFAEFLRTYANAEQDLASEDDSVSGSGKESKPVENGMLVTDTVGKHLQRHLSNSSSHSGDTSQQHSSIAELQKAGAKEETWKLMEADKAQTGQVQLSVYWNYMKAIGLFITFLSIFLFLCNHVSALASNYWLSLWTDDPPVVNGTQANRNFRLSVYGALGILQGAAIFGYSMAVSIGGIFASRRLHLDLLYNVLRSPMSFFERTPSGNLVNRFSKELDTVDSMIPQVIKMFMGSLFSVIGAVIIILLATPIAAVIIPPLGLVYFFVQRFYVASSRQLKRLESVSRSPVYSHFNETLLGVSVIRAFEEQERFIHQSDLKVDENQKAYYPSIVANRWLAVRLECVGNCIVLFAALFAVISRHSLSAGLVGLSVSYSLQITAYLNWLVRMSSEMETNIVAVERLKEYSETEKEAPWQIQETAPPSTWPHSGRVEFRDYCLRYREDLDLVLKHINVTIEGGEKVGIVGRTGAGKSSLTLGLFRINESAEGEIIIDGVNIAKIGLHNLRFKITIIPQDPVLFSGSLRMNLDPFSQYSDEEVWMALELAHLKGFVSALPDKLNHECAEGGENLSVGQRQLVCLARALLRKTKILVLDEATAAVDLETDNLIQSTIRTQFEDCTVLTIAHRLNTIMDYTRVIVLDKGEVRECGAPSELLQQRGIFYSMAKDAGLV

For `COc1ccc2c(c1)c(CC(=O)O)c(C)n2C(=O)c1ccc(Cl)cc1` [INDOMETHACIN], the Activity result in data set [1] is “inhibitor [+]”; in [2] it was 350%; in [3], 1.8 fold; in [4], “is not an inhibitor [-]”; in [5], 170%.

With `COc1ccc(Cl)cc1C(=O)NCCc1ccc(S(=O)(=O)NC(=O)NC2CCCCC2)cc1` [GLYBURIDE], the Activity was 1350% in [6]; 230% in data set [8]; “is not a inhibitor [-]” in [9]; “is not an inhibitor [-]” in [10]; “is not an inhibitor [-]” in data set [11]. In addition, the 50% inhibitory concentration (IC50) in [7] is 150 µM.

The values above are taken from ChEMBL document CHEMBL2073864, “Transport of glyburide by placental ABC transporters: implications in fetal drug exposure” (Placenta, 2006).
